Results from patent US20250289822A1, “SOLID FORMS OF HIV INTEGRASE INHIBITORS” (priority 2024, published 2025).

Test: Hygroscopicity by dynamic vapor sorption (DVS): water sorption/desorption as a function of relative humidity
Format: physicochemical
Method: Hygroscopicity was studied using dynamic vapor sorption (DVS, TA Q5000 SA, TA Instruments, New Castle, DE or DVS, DVS Intrinsic, Surface Measurement Systems, London, UK). […] The water sorption and desorption were studied as a function of relative humidity (RH) at 25° C. […] Data analysis was performed using Universal Analysis 2000 Version 4.7A (TA Instruments, New Castle, DE) for TA DVS runs and Microsoft Excel for SMS DVS runs.

solid form change after the DVS experiment (material checked post DVS experiment): not have changed form
water absorbed (DVS) (up to 95% RH at 25° C.): about 0.15%
SMILES: C[C@@H]1C=C[C@H](C)N2CN1n1cc(C(=O)NCc3c(F)cc(F)cc3F)c(=O)c(O)c1C2=O [Compound of Formula I, Form I, (1S,2R,5S)-8-hydroxy-2,5-dimethyl-7,9-dioxo-N-(2,4,6-trifluorobenzyl)-2,5,7,9-tetrahydro-1,6-methanopyrido[1,2-b][1,2,5]triazonine-10-carboxamide]
